Laboratory results from PubChem BioAssay (NCI).
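Exposure lasted 48 hours, with cells grown in 96-well plates and compounds tested at five concentrations. The concentration for 50% growth inhibition is given as GI50. TGI denotes the concentration required for complete inhibition of growth.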

What was measured:
Experiment in all cases: NCI-60 cell line screen, 48 h
SK-MEL-2 melanoma = test system: SK-MEL-2 melanoma
SW-620 colon = test system: SW-620 colon
SNB-19 CNS = test system: SNB-19 CNS
IGROV1 ovarian = test system: IGROV1 ovarian
HCT-15 colon = test system: HCT-15 colon
KM12 colon = test system: KM12 colon
UO-31 renal = test system: UO-31 renal
HS 578T breast = test system: HS 578T breast
PC-3 prostate = test system: PC-3 prostate
MDA-MB-435 = test system: MDA-MB-435

SMILES	TGI (SK-MEL-2 melanoma) [µM]	TGI (SW-620 colon) [µM]	TGI (SNB-19 CNS) [µM]	TGI (IGROV1 ovarian) [µM]	TGI (HCT-15 colon) [µM]	TGI (KM12 colon) [µM]	TGI (UO-31 renal) [µM]	GI50 (SK-MEL-2 melanoma) [µM]	GI50 (HS 578T breast) [µM]	TGI (HS 578T breast) [µM]	GI50 (SW-620 colon) [µM]	GI50 (SNB-19 CNS) [µM]	GI50 (IGROV1 ovarian) [µM]	GI50 (HCT-15 colon) [µM]	GI50 (KM12 colon) [µM]	GI50 (PC-3 prostate) [µM]	TGI (PC-3 prostate) [µM]	GI50 (UO-31 renal) [µM]	GI50 (MDA-MB-435) [µM]	TGI (MDA-MB-435) [µM]
COC(=O)c1cc(-c2cccn2C)c2c(c1C(=O)OC)c1ccccc1n2C	> 100	> 100	> 100	> 100	> 100	> 100	> 100	–	–	–	–	–	–	–	–	–	–	–	–	–
CC(=O)NC1CC2Oc3ccc(C)cc3C(C)(O2)C1O (stereo not given)	> 100	> 100	> 100	> 100	> 100	> 100	> 100	–	–	–	–	–	–	–	–	–	–	–	–	–
CC1CCC(C(C)C)C(O[C@@H]2OC(=O)C[C@@H]2Sc2ccccc2)C1 (stereo not given in full)	34.9	39.2	> 100	> 100	59.5	54.1	–	–	–	–	–	–	–	–	–	–	–	–	–	–
CCOc1ccccc1/C=N\N=C(\N)N/N=C/c1ccccc1OCC	> 100	> 100	> 100	> 100	> 100	> 100	> 100	1.26	1.65	7.26	2.46	4.49	4.76	1.46	1.89	3.14	> 100	2.97	–	–
COc1cc(C)c(O)c(C(=O)O)c1	> 100	> 100	> 100	> 100	> 100	> 100	> 100	–	–	–	–	–	–	–	–	–	–	–	–	–
CC(=O)Nc1ccc(/C=C/C(=O)c2sc(-c3nc(C)c(C(=O)/C=C/c4ccc(NC(C)=O)cc4)s3)nc2C)cc1	> 100	> 100	> 100	> 100	> 100	> 100	> 100	–	–	–	–	–	–	–	–	–	–	–	–	–
CCOC(=O)c1nc(-c2ccccc2)oc1OCC	–	> 100	> 100	> 100	–	> 100	–	–	–	–	–	–	–	–	–	–	–	–	–	–
CC1(C)CC[C@]2(C(=O)N3CCOCC3)CC[C@]3(C)C(=CC[C@@H]4[C@@]5(C)C/C(=C/c6ccncc6)C(=O)C(C)(C)[C@@H]5CC[C@]43C)[C@@H]2C1	7.27	> 100	27.7	> 100	11	> 100	14.2	2.33	2.56	> 100	2.29	6.93	3.09	0.939	2.7	0.375	46.1	0.893	–	–
CCOC(=O)C1=C(Nc2cccc3ccccc23)OC/C1=N\NC(=O)c1ccccc1O	> 100	> 100	> 100	29.8	> 100	> 100	> 87.6	–	–	–	–	–	–	–	–	–	–	–	–	–
COC(=O)C1=C(OC(=O)c2ccc(Cl)cc2)C(C(=O)OC)[C@@]2(O)[C@@H](C(=O)OC)C(c3ccccc3Cl)C[C@@H]1[C@@H]2C(=O)OC (stereo not given in full)	5.94	> 100	> 100	–	> 100	50.8	24	2.51	3.79	> 100	4.54	24.1	–	3.04	2.81	37.2	> 100	4.03	2.06	4.93
O=C(Nc1nc(=S)c2c(ncn2CCO)[nH]1)c1ccccc1	> 100	> 100	> 100	> 100	> 100	> 100	> 100	–	–	–	–	–	–	–	–	–	–	–	–	–
COC(=O)C1=C(C(=O)OC)SC(=C(N=Nc2ccccc2)c2ccccc2)S1	> 100	> 100	> 100	> 100	> 100	> 100	> 100	–	–	–	–	–	–	–	–	–	–	–	–	–
CCN(CC)c1ccc(C(=N)c2ccc(N(C)C)cc2)cc1	–	5.63	10.1	13	7.93	4.05	7.73	–	0.19	2.67	0.174	2.19	0.949	0.17	0.171	0.284	7.05	1.45	0.0962	1.05
O=C(CCc1cc(-c2ccccc2)nc(=S)[nH]1)Nc1ccccc1[N+](=O)[O-]	> 100	> 100	> 100	> 100	> 100	> 100	> 100	–	–	–	–	–	–	–	–	–	–	–	–	–
C=CCC(OCCOCC)c1cc(OCCOCC)ccc1OC (stereo not given)	> 100	> 100	> 100	> 100	> 100	> 100	> 100	–	–	–	–	–	–	–	–	–	–	–	–	–
COC(=O)C1=C(O)c2cc3c(cc2[C@H](c2cc(OC)c(OC)c(OC)c2)C1C(=O)OC)OCO3 (stereo not given in full)	–	> 100	> 100	> 100	> 100	> 100	> 100	–	–	–	–	–	–	–	–	–	–	–	–	–
CS/C(C)=N/OC(=O)NCCCCNc1ccc(N=[N+]=[N-])cc1	–	> 100	> 100	> 100	> 100	> 100	82.4	–	–	–	–	–	–	–	–	–	–	–	–	–
COc1cc(/C=C/C(=O)c2sc(NNC(C)=O)nc2C)ccc1O	> 100	> 100	–	> 100	> 100	> 100	> 100	–	–	–	–	–	–	–	–	–	–	–	–	–
C[C@@H](NC1CCC[C@H]1O)c1ccccc1 (stereo not given in full)	> 100	> 100	> 100	> 100	> 100	> 100	> 100	–	–	–	–	–	–	–	–	–	–	–	–	–
COc1ccc2c(c1)C(C)Cc1c(Cl)nc(C)nc1N2C (stereo not given)	29.5	24.4	29.5	> 100	8.05	11.4	36.1	10.6	3.98	64.4	2.45	3.48	4.41	1.33	0.789	2.99	> 100	3.99	–	–
O=C1NC2C=CN(Cc3ccccc3)C=C2C(=O)N2CCCC12 (stereo not given)	> 100	> 100	> 100	> 100	> 100	> 100	> 100	–	–	–	–	–	–	–	–	–	–	–	–	–
